Test [1] concerns BCL6-repressed GFP reporter. In words: BCL6 reporter assay (BCL6-repressed GFP) in K422 cells. The settings on record: 24 h, highest GFP signal. The test is classed as cell-based, human. As to the method: KARPAS422 cells were lentivirally transduced with a construct containing the reporter. Description of the reporter construct has been published previously. After selection, cells were plated and treated with indicated amount of compound for 24 hours. Cells were washed in 2.5% FBS/PBS, stained with 1:250 v/v of 7-AAD (BD 559925) to distinguish live from dead cells, and harvested for flow cytometry on a BD Accuri. Given the polyclonal population after transduction, the area under the curve of the histogram representing FITC signal across all live cells was calculated as an integrative measure of total GFP signal. A GFP-positive gate two standard deviations from the mean was drawn from non-transduced cells and the area past a constant threshold was calculated and normalized to the signal from cells treated with DMSO.

The subject of test [2] is SUDHL5 cells. In words: Cell cycle analysis (EdU / 7-AAD) of SUDHL5. The test is classed as cell-based, human. The settings on record: SUDHL5, 10 nM, 24 hours. How it is done: 2 million SUDHL5 cells were plated in 4 mL of media in 6-well plates and treated with 10 nM of drug. After 22 hours, cells were dosed with 10 μM 5-ethynyl-2’-deoxyuridine (EdU) and allowed to incubate for an additional 2 hours, at which point cells were harvested and collected by centrifuging at 300g for 4 minutes at 4°C. Cells were washed once with 1% BSA in PBS. 1.1 million cells in 1% BSA/PBS were then transferred to flow cytometry polypropylene tubes and centrifuged at 300g for 4 minutes at 4°C. Supernatant was removed, and cells were fixed for 15 minutes in the dark at room temperature with 100 μL of 4% PFA in PBS, in which gentle flicking was used to resuspend cells. Cells were then washed with 1 mL of 1% BSA/PBS and permeabilized with 100 μL of 0.1% Triton-X for 30 minutes at room temperature in the dark. Cells were washed with 3 mL 1% BSA/PBS, then incubated in the dark for 30 minutes with a cocktail of AlexaFluor-488-Azide (438 μL PBS, 10 μL 100 mM CuSO4, 2 μL 488-azide, and 50 μL of 1x EdU Reaction Buffer dissolved in water) (Invitrogen C10337). Cells were washed with 1 mL 1% BSA in PBS, then incubated with a reaction cocktail of 7-AAD/RNAseA for 30 minutes in the dark (500 μL 1% BSA/PBS, 2 μL 7-AAD (BD 559925), 5 μL RNAseA (Invitrogen 12091021)). […] Cells were gently agitated by shaking, then analyzed through flow cytometry on a BD Accuri. […]

Test [3] deals with T1, BCL6 (Homo sapiens, UniProt P41182+Q09472+Q92793).
T1 construct: endogenous in cells; host or cells: SUDHL5
In words: Acetyl-lysine IP and western blot for BCL6 in SUDHL5. The settings on record: SUDHL5, 1 hour. It counts as cell-based. As to the method:
Cells were plated at 1M/mL and treated with compound or DMSO at indicated timepoints and doses. Cells were harvested on ice, counted, normalized by count, and washed 1X in PBS containing compound or DMSO. For only BCL6 immunoprecipitation, compound or DMSO was maintained in nuclear preparation buffers at identical concentration to cell treatment throughout. Nuclei were prepared by incubation in Buffer A (25 mM HEPES pH 7.5, 25 mM KCl, 0.05 mM EDTA, 1mM MgCl2, 10% glycerol, 0.1% NP-40) supplemented with protease inhibitors (1 mM PMSF, ~[…] pepstatin, aprotinin, and leupeptin) at 4 °C for 7 mins. Nuclear preparation was confirmed by Trypan blue staining and nuclei were pelleted by centrifugation for 5 min at 500g at 4 °C. Pelleted nuclei were resuspended in IP Buffer (25 mM HEPES pH 7.5, 150mM KCl, 0.05 mM EDTA, 1 mM MgCl2, 10% glycerol, 0.1% NP-40) supplemented with protease inhibitors and 1 μL/250 units benzonase (Sigma E1014). Chromatin was removed by incubation with rotation for 30 min and nuclei sheared using a 27-gauge needle exactly five times. […]
Cells were plated at 1M/mL and treated with drug at indicated timepoints and doses. […] After 10 min centrifugation at 14,000g and 4 °C, the supernatant was collected and protein concentration was measured by Bradford. […] ImageStudio (Licor) was used for blot imaging and quantification.
In general terms: A western blot detects proteins with antibodies after separation by electrophoresis.

Test [4] deals with c-MYC protein. In words: Western blot of c-MYC protein in SUDHL5. The test is classed as cell-based, human. As to the method:
Cells were plated at 1M/mL and treated with drug at indicated timepoints and doses. Cells were harvested on ice in RIPA buffer (50mM Tris-HCl pH 8, 150mM NaCl, 1% NP-40, 0.1% DOC, 1% SDS, protease inhibitor cocktail (~20 mg/ml pepstatin, aprotinin, and leupeptin), 1mM DTT) and 1:200 benzonase (Sigma E1014) was added and incubated for 20 mins. After 10 min centrifugation at 14,000g and 4 °C, the supernatant was collected and protein concentration was measured by Bradford. SDS-PAGE analysis was carried out in either 4–12% or 12% Bis-Tris PAGE gels (Thermo NW04120 and NW04127). Antibodies used for immunoblots were: BCL6 (1:1000 v:v, Cell Signaling D65C10), p300 (1:250, Santa Cruz F-4 sc-48343), CBP (1:1000, Cell Signaling D6C5), c-MYC (1:1000, Cell Signaling D84C12), Caspase-3 (1:1000, Cell Signaling 9662), GAPDH (1:2000, Santa Cruz 6C5 sc-32233), BBC3/PUMA (1:1000, Cell Signaling E2P7G), FOXO3 (1:1000, Cell Signaling 75D8), H3K27ac (1:1000, abcam ab4729), H2BK20ac (1:1000, Cell Signaling D709W), H3 (1:10,000, Cell Signaling 1B1B2), H2B (1:10,000, Cell Signaling D2H6), p27/CDKN1B (1:1000, Cell Signaling D69C12), and TP53 (1:1000, Santa Cruz DO-1). ImageStudio (Licor) was used for blot imaging and quantification.

The record followed here is article doi:10.1101/2025.03.14.643404, “A Bivalent Molecular Glue Linking Lysine Acetyltransferases to Oncogene-induced Cell Death” (bioRxiv, 2025).

T1 sequence (Q09472 2-2414 limits assumed, other chains not shown): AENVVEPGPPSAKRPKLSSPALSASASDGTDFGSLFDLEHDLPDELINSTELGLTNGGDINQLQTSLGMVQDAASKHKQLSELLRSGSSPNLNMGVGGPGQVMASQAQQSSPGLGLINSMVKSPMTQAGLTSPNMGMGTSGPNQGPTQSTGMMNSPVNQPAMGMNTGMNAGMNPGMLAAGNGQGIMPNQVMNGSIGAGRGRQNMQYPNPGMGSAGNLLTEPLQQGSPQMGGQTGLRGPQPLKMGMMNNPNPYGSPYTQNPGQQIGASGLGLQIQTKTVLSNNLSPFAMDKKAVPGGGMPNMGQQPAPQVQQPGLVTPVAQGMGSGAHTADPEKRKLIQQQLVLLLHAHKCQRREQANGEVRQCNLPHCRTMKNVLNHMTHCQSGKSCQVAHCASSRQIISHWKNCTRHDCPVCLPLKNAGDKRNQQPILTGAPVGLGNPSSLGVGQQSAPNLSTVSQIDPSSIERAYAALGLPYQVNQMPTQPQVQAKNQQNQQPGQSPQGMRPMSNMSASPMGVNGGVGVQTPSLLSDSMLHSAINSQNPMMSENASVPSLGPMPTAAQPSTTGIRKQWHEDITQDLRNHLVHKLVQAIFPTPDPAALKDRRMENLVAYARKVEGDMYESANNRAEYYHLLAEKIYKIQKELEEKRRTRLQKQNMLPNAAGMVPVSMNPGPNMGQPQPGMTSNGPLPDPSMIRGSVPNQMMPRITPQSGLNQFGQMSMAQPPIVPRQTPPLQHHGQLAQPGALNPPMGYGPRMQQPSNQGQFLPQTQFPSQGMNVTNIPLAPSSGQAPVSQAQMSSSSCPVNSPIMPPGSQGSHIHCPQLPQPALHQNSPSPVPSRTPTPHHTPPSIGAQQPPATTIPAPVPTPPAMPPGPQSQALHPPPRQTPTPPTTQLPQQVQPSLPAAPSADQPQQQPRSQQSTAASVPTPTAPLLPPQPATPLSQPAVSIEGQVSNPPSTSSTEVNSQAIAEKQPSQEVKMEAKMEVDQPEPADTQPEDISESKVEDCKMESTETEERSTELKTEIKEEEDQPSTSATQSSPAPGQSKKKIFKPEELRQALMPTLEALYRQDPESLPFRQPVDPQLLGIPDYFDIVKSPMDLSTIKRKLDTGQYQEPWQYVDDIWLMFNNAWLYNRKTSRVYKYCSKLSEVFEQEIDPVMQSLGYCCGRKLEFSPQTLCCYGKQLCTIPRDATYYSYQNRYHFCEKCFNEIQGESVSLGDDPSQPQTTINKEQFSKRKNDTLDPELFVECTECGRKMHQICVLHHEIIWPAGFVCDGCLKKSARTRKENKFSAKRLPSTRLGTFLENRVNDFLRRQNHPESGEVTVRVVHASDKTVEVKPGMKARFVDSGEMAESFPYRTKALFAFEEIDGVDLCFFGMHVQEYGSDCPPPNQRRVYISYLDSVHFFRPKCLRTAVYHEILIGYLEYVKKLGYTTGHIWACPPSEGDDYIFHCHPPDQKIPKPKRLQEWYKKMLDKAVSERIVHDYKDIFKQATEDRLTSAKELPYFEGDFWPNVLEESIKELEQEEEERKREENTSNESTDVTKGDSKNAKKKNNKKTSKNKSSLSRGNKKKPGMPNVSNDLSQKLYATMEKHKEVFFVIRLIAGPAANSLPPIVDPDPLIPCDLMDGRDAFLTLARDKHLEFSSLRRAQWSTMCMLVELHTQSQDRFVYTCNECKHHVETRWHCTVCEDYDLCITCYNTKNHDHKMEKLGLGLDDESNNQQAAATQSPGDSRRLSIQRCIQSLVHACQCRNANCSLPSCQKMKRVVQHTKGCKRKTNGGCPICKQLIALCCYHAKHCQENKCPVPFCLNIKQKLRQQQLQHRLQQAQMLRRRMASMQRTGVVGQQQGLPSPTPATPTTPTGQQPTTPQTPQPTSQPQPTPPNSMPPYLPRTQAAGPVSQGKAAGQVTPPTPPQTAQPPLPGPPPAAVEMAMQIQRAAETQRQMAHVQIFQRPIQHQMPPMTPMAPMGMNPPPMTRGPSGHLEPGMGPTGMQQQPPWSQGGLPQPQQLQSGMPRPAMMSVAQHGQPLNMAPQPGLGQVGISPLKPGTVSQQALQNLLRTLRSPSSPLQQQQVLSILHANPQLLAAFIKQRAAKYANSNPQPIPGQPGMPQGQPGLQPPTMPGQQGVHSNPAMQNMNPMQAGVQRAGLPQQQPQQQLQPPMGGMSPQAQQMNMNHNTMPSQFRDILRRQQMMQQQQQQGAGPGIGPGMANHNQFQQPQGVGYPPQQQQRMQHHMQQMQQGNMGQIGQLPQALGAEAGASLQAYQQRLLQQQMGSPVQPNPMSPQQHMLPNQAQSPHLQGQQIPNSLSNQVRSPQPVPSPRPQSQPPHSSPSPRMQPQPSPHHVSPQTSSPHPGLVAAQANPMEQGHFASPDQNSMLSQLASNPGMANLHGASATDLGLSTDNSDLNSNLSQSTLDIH
T1 sequence (Q92793 2-2442 limits assumed, other chains not shown): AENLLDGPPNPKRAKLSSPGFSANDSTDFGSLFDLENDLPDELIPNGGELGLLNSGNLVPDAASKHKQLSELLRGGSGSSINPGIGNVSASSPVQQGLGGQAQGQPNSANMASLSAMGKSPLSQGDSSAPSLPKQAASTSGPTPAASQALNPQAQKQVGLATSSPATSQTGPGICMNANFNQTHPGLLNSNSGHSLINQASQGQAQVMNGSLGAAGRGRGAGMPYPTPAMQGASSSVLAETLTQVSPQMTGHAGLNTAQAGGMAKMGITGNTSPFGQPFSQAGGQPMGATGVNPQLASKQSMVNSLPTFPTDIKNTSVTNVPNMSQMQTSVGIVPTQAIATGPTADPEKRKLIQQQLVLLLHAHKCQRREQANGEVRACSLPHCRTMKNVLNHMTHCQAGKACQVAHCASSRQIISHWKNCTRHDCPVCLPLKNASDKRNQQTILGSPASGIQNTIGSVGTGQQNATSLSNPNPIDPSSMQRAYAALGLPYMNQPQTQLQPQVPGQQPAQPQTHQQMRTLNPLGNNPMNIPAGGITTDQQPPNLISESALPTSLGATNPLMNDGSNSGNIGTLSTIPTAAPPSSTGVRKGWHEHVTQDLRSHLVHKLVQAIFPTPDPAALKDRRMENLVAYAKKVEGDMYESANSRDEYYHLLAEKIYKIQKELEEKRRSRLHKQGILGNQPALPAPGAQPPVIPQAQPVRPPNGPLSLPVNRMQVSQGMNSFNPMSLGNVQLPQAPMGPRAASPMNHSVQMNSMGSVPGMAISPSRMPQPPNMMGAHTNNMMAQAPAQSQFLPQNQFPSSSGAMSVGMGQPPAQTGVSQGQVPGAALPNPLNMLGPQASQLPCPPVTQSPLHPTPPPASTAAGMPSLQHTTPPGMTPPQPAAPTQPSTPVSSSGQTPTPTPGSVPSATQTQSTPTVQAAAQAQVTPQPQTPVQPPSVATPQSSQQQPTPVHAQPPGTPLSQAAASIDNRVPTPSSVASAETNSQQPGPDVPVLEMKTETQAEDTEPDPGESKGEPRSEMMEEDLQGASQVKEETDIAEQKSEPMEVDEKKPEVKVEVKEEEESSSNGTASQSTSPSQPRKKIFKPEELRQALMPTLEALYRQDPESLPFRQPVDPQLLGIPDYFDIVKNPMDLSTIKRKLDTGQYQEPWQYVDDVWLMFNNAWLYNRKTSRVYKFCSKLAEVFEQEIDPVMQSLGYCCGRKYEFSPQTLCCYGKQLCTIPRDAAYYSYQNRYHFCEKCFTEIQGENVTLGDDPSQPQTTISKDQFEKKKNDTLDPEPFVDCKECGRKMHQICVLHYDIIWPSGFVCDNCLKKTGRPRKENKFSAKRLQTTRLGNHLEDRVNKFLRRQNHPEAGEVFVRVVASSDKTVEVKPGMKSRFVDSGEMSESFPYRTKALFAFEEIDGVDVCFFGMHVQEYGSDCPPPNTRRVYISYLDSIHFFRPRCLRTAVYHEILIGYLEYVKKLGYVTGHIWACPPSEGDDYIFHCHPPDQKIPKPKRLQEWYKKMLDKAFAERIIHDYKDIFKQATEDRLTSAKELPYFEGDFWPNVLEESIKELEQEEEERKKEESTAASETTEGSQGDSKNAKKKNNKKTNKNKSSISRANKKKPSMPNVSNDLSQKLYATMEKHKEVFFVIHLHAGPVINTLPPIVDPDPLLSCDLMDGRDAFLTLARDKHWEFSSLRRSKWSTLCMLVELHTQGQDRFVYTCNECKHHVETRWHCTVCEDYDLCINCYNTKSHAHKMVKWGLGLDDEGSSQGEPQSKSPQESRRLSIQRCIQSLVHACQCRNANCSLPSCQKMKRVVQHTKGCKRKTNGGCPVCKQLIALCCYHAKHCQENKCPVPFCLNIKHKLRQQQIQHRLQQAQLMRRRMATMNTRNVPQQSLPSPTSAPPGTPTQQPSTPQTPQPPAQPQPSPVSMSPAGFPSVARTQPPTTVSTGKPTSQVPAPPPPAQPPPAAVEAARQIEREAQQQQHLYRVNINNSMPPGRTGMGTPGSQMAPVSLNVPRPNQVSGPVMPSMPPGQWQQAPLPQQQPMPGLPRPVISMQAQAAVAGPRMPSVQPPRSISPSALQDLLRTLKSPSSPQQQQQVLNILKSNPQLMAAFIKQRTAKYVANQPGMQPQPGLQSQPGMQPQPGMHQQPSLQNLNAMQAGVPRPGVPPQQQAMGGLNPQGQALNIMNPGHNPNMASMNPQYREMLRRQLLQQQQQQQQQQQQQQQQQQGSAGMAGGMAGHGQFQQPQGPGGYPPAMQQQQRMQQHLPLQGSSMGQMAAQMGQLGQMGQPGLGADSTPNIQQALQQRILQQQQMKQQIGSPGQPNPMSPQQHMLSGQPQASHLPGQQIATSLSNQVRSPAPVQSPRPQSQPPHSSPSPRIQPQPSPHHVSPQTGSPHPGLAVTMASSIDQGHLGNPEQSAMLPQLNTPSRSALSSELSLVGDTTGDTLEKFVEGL

Take `CNC(=O)COc1cc2cc(Nc3nc(N4CCC(C(=O)N5CCN(CCC(=O)N6CCC(n7nc(N8CCCc9cc(-c%10cnn(C)c%10)c(C(F)F)cc98)c8c7CCN(C(=O)NC)C8)CC6)CC5)CC4)ncc3Cl)cc(OC)c2n(C)c1=O` [TCIP3]: the “GFP signal relative to DMSO treatment” value in test [1] came to 10 times. Moreover, the “cell cycle effect” value in test [2] is “enrichment in cells arrested in G0/G1”. Besides, in test [3], the “concentration at which increase of acetylated BCL6 begins” value is recorded as 1 nM. The “t1/2 of c-MYC protein decrease” value in test [4] (SUDHL5, 1 nM) turned out to be 2.5 h. Besides, in test [4] (SUDHL5, 4 hours, read-out: IC50 of c-MYC protein repression), the 50% inhibitory concentration (IC50) (as a rule, the concentration that gives 50% inhibition) was about 0.8 nM.
